Broadly, the IC50 is the point on the concentration scale where inhibition reaches its midpoint. High values mean a need for much substance, low ones inhibition by little substance.

9 compounds from PMC5749684, “Tetrahydrocarbazoles are a novel class of potent P-type ATPase inhibitors with antifungal activity” (PLoS ONE, 2018) can be followed below.

Experiment [1] concerns Saccharomyces cerevisiae ATCC 9763. In words: Fungal growth inhibition, S. cerevisiae ATCC 9763. It counts as cell-based. Particulars: ATCC9763, MIC defined as 50% growth inhibition, 24 h, n = 3–6. An excerpt: (§1) Fungal isolates were purchased from American Type Culture Collection, except for C. glabrata strain Cg003, which was kindly provided by Julius Subik, Comenius University in Bratislava, Slovak Republic. Cg003 is a clinical isolate, characterized to be resistant to fluconazole and itraconazole due to overexpression of the multidrug resistance efflux pumps Cdr1p and Cdr2p. Saccharomyces cerevisiae (ATCC 9763), Candida albicans (ATCC 90028), Candida albicans (SC5314), Candida glabrata (ATCC 90030), Candida glabrata (Cg003) and Candida krusei (ATCC 6258) were grown in Sabouraud broth (40 g/L D-glucose, 10 g/L peptone, pH 5.6) or YPD (10 g/L yeast extract, 20 g/L Bacto-peptone, 20 g/L glucose) medium to mid log phase, aliquoted into 20% (v/v) glycerol and cryopreserved as stocks at -80°C. For each growth assay, cells from these stocks were diluted in sterile water to OD600 = 0.025, which corresponds to a final starting inoculum of 0.5–2.5 x 10^5 CFU/mL. Growth assays were carried out by pipetting 3 μL compound dissolved in DMSO, 100 μL cell suspension and 97 μL 2 x RPMI media (20.8 g/L RPMI-1640 (Sigma-Aldrich catalog number R6504) 330 mM MOPS, 36 g/L glucose) into a microtiter plate and incubating for 24 h at 34°C, followed by OD measurement at 490 nm. The minimum inhibitory concentration (MIC) was defined as 50% growth inhibition of the microorganism as this measurement best represented the antifungal activity of the compounds. Standard errors were typically below 5%.

The target of experiment [2] is T1, Mammalian Na^+,K^+-ATPase (Sus scrofa, UniProt P05024).
T1 construct: The pig kidney Na^+,K^+-ATPase purification included a mild SDS treatment of isolated microsomes; from tissue; host or cells: pig kidney microsomes, SDS-treated
In words: ATP hydrolysis inhibition, Na+,K+-ATPase. It counts as biochemical. Particulars: pig Na+,K+-ATPase, racemic compounds, n = 3. An excerpt:
All membrane batches were validated by determining ATPase activity, pH optimum and orthovanadate sensitivity. Sarco/endoplasmatic reticulum (SR) Ca^2+ ATPase was provided in SR membranes purified by extraction with a low concentration of deoxycholate (DOC) and was kindly provided by Claus E. Olesen and Jesper V. Møller, Aarhus University and prepared as described in [43]. The pig kidney Na^+,K^+-ATPase purification included a mild SDS treatment of isolated microsomes followed by a washing step and was kindly provided by Natalya Fedosova, Aarhus University and prepared as described in [44].
(§2) ATPase activity was determined by measuring the amount of liberated phosphate from ATP hydrolysis. The ATPase assay was performed in 96 well plates in a final reaction volume of 60 μL. 0.1–0.2 μg/well of DOC extracted SERCA membrane or the Na^+,K^+-ATPase was used, while 1–2.5 μg/well was used of the Pma1 membrane preparation. Reactions, including protein membrane preparation and various concentrations of exogenously added compounds, were conducted in the following buffers; Pma1 buffer: 17.5 mM MOPS-NaOH pH 7, 7 mM MgSO4, 44 mM KNO3 (vacuolar ATPase inhibitor), 22 mM NaN3 (mitochondrial ATPase inhibitor), 0.22 mM Na2MoO4 (acid phosphatase inhibitor); SERCA buffer: 9 mM MOPS-NaOH pH 7, 2.7 mM MgCl2, 0.1 mM CaCl2 and 72 mM KCl. Na^+,K^+-ATPase buffer: 30 mM MOPS-NaOH pH 7, 40 mM NaCl, 4 mM MgCl2 and 20 mM KCl. Reactions were initiated by the addition of Na-ATP to a final concentration of 2.5 mM (Pma1 and Na^+,K^+-ATPase) or 5 mM (SERCA), followed by 30 minutes incubation at 30°C. […] Absorption was measured at 860 nm after additional 30 minutes incubation at RT.

The test system of experiment [3] is Candida glabrata ATCC 90030. The experiment in a line: Fungal growth inhibition, C. glabrata ATCC 90030. It counts as cell-based. Particulars: Nakaseomyces glabratus, ATCC90030; MIC defined as 50% growth inhibition, 24 h, n = 3–6.
Source text: as §1

For a further experiment, the system named is Candida glabrata Cg003. The experiment in a line: microbe, parasite or virus in culture. Type of experiment: cell-based. The conditions noted are these: for MIC: Nakaseomyces glabratus, CG003, 24 h, read-out: Growth inhibition MIC Candida glabrata Cg003. The protocol:
as §1, with “Cg003 is a clinical isolate, characterized to be resistant to fluconazole and itraconazole due to overexpression of the multidrug resistance efflux pumps Cdr1p and Cdr2p.” left out, “nm.” for “nm. The minimum inhibitory concentration (MIC) was defined as 50% growth inhibition of the microorganism as this measurement best represented the antifungal activity of the compounds. Standard errors were typically below 5%.”

A further experiment has as its system Candida krusei ATCC 6258. In words: Fungal growth inhibition, C. krusei. Type of experiment: cell-based. Particulars: Pichia kudriavzevii, ATCC6258; MIC defined as 50% growth inhibition, 24 h, n = 3–6.
Source text: as §1

Experiment [4] addresses T2, Saccharomyces cerevisiae Pma1 (Saccharomyces cerevisiae, UniProt P05030).
T2 construct: containing the full-length cDNA of the S. cerevisiae plasma membrane H^+-ATPase isoform PMA1; made in house; host or cells: Saccharomyces cerevisiae RS72
The experiment in a line: ATP hydrolysis inhibition, S. cerevisiae Pma1. Type of experiment: biochemical. The conditions noted are these: for Pma1 inhibition (in words): Pma1 species not specified; for Selectivity among P-type ATPases (in words): Pma1 versus SERCA and Na+,K+-ATPase. The protocol:
The compound libraries were purchased from Enamine Ltd, Ukraine and Chembridge Corp, USA. Library screening was performed in 96 well plates format and each compound was screened in the ATP hydrolysis assay at a final concentration of 20 μM. DMSO was used to determine the maximal ATPase activity and a blank with ATP in absence of Pma1 protein was used to determine the level of spontaneous ATP hydrolysis and used to determine background level. The percentage of compound inhibition was evaluated by subtracting the blank from each data point and normalizing to maximal ATP hydrolysis activity. […] Pma1 inhibitory hit compounds (IC50 <20 μM) with antifungal activity on both S. cerevisiae and C. albicans (MIC <100 μM) were re-purchased and re-evaluated to confirm the potency and identity of the compound.
Plasma membranes containing Pma1 were isolated from Saccharomyces cerevisiae RS72 cells containing the full-length cDNA of the S. cerevisiae plasma membrane H^+-ATPase isoform PMA1 under control of the PMA1 promoter as described.
as §2

Where [5] appears, read: ATP hydrolysis IC50 Saccharomyces cerevisiae Pma1, racemic compounds, n = 3.
Where [6] appears, read: Pma1 IC50, Pma1 species not specified.

SMILES strings stand for the structures. Values after ≈ are worked out from the molar mass of the structure shown. Values joined by “and” are separate entries in the source; they are usually repeats but may differ in a detail not shown here. Equal entries are not always repeated. “Also recorded” adds a separate entry of the source. Some results are limits rather than exact numbers.

T2 sequence (P05030 whole entry, canonical isoform): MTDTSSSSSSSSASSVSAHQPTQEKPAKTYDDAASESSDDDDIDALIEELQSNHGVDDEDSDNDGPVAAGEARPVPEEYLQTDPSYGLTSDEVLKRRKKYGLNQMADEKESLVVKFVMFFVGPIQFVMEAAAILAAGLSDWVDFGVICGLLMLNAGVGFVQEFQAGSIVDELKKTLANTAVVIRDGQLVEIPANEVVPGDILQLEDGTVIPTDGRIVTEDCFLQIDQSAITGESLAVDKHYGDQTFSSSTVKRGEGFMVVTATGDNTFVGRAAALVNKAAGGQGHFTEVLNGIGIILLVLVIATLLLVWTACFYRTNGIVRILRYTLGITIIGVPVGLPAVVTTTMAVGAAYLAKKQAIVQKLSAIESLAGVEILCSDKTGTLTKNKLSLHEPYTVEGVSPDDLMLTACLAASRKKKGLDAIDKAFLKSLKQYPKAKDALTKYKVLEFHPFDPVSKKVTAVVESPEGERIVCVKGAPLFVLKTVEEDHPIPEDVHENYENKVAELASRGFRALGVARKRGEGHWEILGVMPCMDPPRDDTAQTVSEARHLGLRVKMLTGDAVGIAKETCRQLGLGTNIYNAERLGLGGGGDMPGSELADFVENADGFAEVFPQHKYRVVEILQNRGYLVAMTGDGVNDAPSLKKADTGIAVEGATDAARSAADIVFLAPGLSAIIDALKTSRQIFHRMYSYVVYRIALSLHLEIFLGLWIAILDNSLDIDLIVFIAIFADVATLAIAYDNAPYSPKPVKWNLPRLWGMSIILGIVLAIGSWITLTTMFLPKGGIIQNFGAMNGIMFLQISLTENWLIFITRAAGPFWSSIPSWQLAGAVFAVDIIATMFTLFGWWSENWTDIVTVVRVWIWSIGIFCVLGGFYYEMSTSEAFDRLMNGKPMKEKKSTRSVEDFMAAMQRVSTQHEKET

Take `NC1CCCc2c1[nH]c1cc(OC(F)(F)F)ccc21` (centres unmarked) [Compound 4]: the MIC in experiment [1] worked out at 7.5 µM (≈ 2.03 µg/mL); in experiment [3], 23.7 µM (≈ 6.41 µg/mL); in the experiment with Candida glabrata Cg003, 75 µM (≈ 20.3 µg/mL); in the experiment on Candida krusei ATCC 6258 it was 66 ± 16 µM (≈ 17.8 µg/mL). In addition, the IC50 is 37.2 ± 13.6 µM in experiment [2] and 75 ± 3.2 µM in experiment [4] (setting [5]). Moreover, in experiment [4], the “Pma1 inhibition (in words)” value is on record as “weak inhibitors of Pma1”.
Consider `CN1CCC(NC2CCCc3c2[nH]c2cc(OC(F)(F)F)ccc32)CC1` (centres unmarked) [Compound 5], for which the MIC in experiment [1] is 11.6 ± 8.1 µM (≈ 4.26 µg/mL); in experiment [3], 46.5 ± 27 µM (≈ 17.1 µg/mL); in the experiment with Candida glabrata Cg003 it was more than 75 µM; against Candida krusei ATCC 6258 it was 150 µM (≈ 55.1 µg/mL). The IC50 in experiment [2] turned out to be 132 ± 35.2 µM; in experiment [4] (setting [5]) it was 85.9 ± 10.3 µM. For the same compound, the “Pma1 inhibition (in words)” value in experiment [4] is recorded as “weak inhibitors of Pma1”.
Consider `FC(F)(F)Oc1ccc2c3c([nH]c2c1)C(NCc1ccc(Cl)cc1)CCC3` (centres unmarked) [Compound 6], for which the MIC in experiment [1] is 5 ± 2.9 µM (≈ 1.97 µg/mL); in experiment [3], 12.1 ± 7.9 µM (≈ 4.78 µg/mL); with Candida glabrata Cg003, more than 75 µM; against Candida krusei ATCC 6258 it was 7.5 µM (≈ 2.96 µg/mL). In addition, the IC50 in experiment [2] was found to be 0.72 ± 0.3 µM; in experiment [4] (setting [5]), 2.79 ± 0.36 µM. Moreover, the “Selectivity among P-type ATPases (in words)” value in experiment [4] was “more potent in inhibiting SERCA and the Na^+,K^+-ATPase than Pma1”.
Regarding `FC(F)(F)Oc1ccc2c3c([nH]c2c1)C(NCc1ccc(Br)cc1)CCC3` (centres unmarked) [Compound 7], the MIC is 1.5 µM (≈ 0.659 µg/mL) in experiment [1], 15 µM (≈ 6.59 µg/mL) in experiment [3], more than 75 µM in the experiment with Candida glabrata Cg003 and 4.7 µM (≈ 2.06 µg/mL) with Candida krusei ATCC 6258. For the same compound, the results for the IC50 in experiment [2] and in experiment [4] (setting [5]) were 0.38 ± 0.12 µM and 2.43 ± 0.39 µM, respectively. In experiment [4], the “Selectivity among P-type ATPases (in words)” value was “more potent in inhibiting SERCA and the Na^+,K^+-ATPase than Pma1”.
In the case of `FC(F)(F)Oc1ccc2c3c([nH]c2c1)C(NCCOc1ccc(Cl)cc1)CCC3` (centres unmarked) [Compound 8], the MIC in experiment [1] is 6.2 ± 2.6 µM (≈ 2.63 µg/mL); in experiment [3], 5.3 ± 2.7 µM (≈ 2.25 µg/mL); with Candida glabrata Cg003, more than 75 µM; against Candida krusei ATCC 6258, 12.9 ± 9.4 µM (≈ 5.48 µg/mL). In addition, the IC50 was found to be 1.07 ± 0.38 µM in experiment [2] and 3.57 ± 1.81 µM in experiment [4] (setting [5]). In addition, the “Selectivity among P-type ATPases (in words)” value in experiment [4] is “more potent in inhibiting SERCA and the Na^+,K^+-ATPase than Pma1”.
Consider `FC(F)(F)Oc1ccc2[nH]c3c(c2c1)CCCC3NCc1ccc(-c2ccccn2)cc1` (centres unmarked) [Compound 9], for which the MIC was found to be 7.5 µM (≈ 3.28 µg/mL) in experiment [1], 7.5 µM (≈ 3.28 µg/mL) in experiment [3], 23.7 µM (≈ 10.4 µg/mL) with Candida glabrata Cg003 and 7.5 ± 4.8 µM (≈ 3.28 µg/mL) against Candida krusei ATCC 6258. Also, the IC50 in experiment [2] was 9.76 ± 4.47 µM; in experiment [4] (setting [5]), 4.73 ± 2.23 µM; in experiment [4] (setting [6]) it was 5 to 7 µM. Besides, the “Antifungal activity against C. glabrata strain Cg003 (in words)” value in the experiment with Candida glabrata Cg003 (strain overexpresses efflux pumps Cdr1p and Cdr2p) is “exhibited antifungal activity”.
Turning to `Clc1ccc2[nH]c3c(c2c1)CCCC3NCc1ccc(-c2ccccc2)cc1` (centres unmarked) [Compound 10], the MIC in experiment [1] was 7.5 µM (≈ 2.9 µg/mL); in experiment [3], 21 ± 6.6 µM (≈ 8.13 µg/mL); in the experiment on Candida glabrata Cg003, more than 75 µM; against Candida krusei ATCC 6258 it was 6.8 ± 4.6 µM (≈ 2.63 µg/mL). Besides, the IC50 in experiment [2] was 5.5 ± 2.74 µM; in experiment [4] (setting [5]), 7 µM and 6.69 µM; in experiment [4] (setting [6]), 5 to 7 µM.
Regarding `Cn1c2c(c3cc(Cl)ccc31)CCCC2NCc1ccc(-c2ccccc2)cc1` (centres unmarked) [Compound 11], the MIC (in experiment [1]; in experiment [3]; in the experiment on Candida glabrata Cg003; against Candida krusei ATCC 6258) was more than 20 µM in each case. For the same compound, the IC50 in experiment [2] and in experiment [4] (setting [5]) was more than 20 µM throughout. The “Pma1 inhibition (in words)” value in experiment [4] is listed as “no activity against Pma1; also recorded: no inhibitory effect on Pma1”.
Consider `CN(Cc1ccc(-c2ccccc2)cc1)C1CCCc2c1[nH]c1ccc(Cl)cc21` (centres unmarked) [Compound 12], for which the MIC (in experiment [1]; in experiment [3]; in the experiment on Candida glabrata Cg003; in the experiment with Candida krusei ATCC 6258) was more than 20 µM each time. For the same compound, the figures for the IC50 in experiment [2] and in experiment [4] (setting [5]) were 11.8 ± 6.8 µM and more than 20 µM, respectively. Also, the “Pma1 inhibition (in words)” value in experiment [4] is “no activity against Pma1; also recorded: no inhibitory effect on Pma1”. In addition, in experiment [4], the “Selectivity among P-type ATPases (in words)” value was “weakly selective for Na^+,K^+-ATPase only”.
